Here are results for five compounds from patent US20220279826A1, “OFF-FLAVOR SUPPRESSING AGENT” (AJINOMOTO CO., INC., priority 2019, published 2022).

Assay [1] can be described thus: Sensory evaluation in ramen noodle soup solution with potassium chloride (Experimental Example 3). Conditions: for off-taste suppressing effect: Ramen noodle soup solution with 0.8 wt % potassium chloride; for intensity of off-tastes (bitter taste, metallic taste, harsh taste, astringent taste) derived from potassium chloride: base solutions of Tables 15 to 17 (ramen noodle soup, chicken broth, potage). As for the experimental part:
As shown in the following (1) to (3) below, 0.8 wt % of potassium chloride was added to a food base powder corresponding to 0.5 wt % of sodium chloride to prepare each base solution having an off-taste derived from potassium chloride.
Potassium chloride (0.8 g) was added to a soup powder (1.1 g) of a commercially available instant ramen noodle (manufactured by SANYO FOODS Co., Ltd., trade name “Sapporo Ichiban Shouyuaji”), hot water (98.1 g) was added to dissolve the mixture to prepare a base solution (ramen noodle soup solution).
Each compound shown in the following Tables 15 to 17 was added to each base solution (ramen noodle soup solution, chicken broth solution, potage solution) so as to achieve the concentration (addition concentration) shown in the following Tables 15 to 17 to prepare each evaluation sample.
By a method similar to that in Experimental Example 1, a panel of two experts determined the intensity of off-tastes (bitter taste, metallic taste, harsh taste, astringent taste) derived from potassium chloride in each evaluation sample.

Assay [2] in a line: Sensory evaluation in BCAA sweetness aqueous solution (Experimental Example 6). More on the design: key to off-taste suppressing effect: ±: no change from negative control; −: slightly suppressed compared to negative control; −−: suppressed compared to negative control (same level of intensity as BCAA sweetness aqueous solution in which total concentration of leucine, isoleucine, and valine (weight ratio=2:1:1) exceeds 0.8 wt % and is not more than 0.9 wt %); −−−: considerably suppressed compared to negative control (same level of intensity as BCAA sweetness aqueous solution in which total concentration of leucine, isoleucine, and valine (weight ratio=2:1:1) is not more than 0.8 wt %). The settings on record: for intensity of off-tastes (bitter taste, harsh taste) derived from amino acid (branched chain amino acid): summary of Table 20. As for the experimental part: Each compound shown in the following Table 20 was added to an aqueous solution prepared by dissolving leucine (0.50 parts by weight), isoleucine (0.25 parts by weight), valine (0.25 parts by weight), and granulated sugar (4 parts by weight) in ion exchange water (95 parts by weight) (hereinafter at times referred to as BCAA sweetness aqueous solution) so as to achieve the concentration (addition concentration) shown in the following Table 20 to prepare each evaluation sample.
Based on the following evaluation criteria, a panel of four experts determined by consensus the intensity of off-tastes (bitter taste, harsh taste) derived from amino acid in each evaluation sample, by comparison with a BCAA sweetness aqueous solution without addition of any compound (negative control).

Assay [3] can be described thus: Sensory evaluation in Japanese noodle soup base solution with potassium chloride (0.1 g) (Experimental Example 4). Conditions: for off-taste suppressing effect: Japanese noodle soup base solution, potassium chloride 0.1 g; for intensity of off-tastes (bitter taste, metallic taste, harsh taste, astringent taste) derived from potassium chloride: base solution of Table 18. As for the experimental part: Potassium chloride (0.1 g) was added to a commercially available Japanese noodle soup base (manufactured by Yamaki Co., Ltd.) (11.1 g), and dissolved by adding hot water ([…]) to prepare a base solution.
Each compound shown in the following Table 18 was added to the base solution prepared above so as to achieve the concentration (addition concentration) shown in the following Table 18 to prepare each evaluation sample.
Based on the following evaluation criteria, a panel of two experts determined by consensus the intensity of off-tastes (bitter taste, metallic taste, harsh taste, astringent taste) derived from potassium chloride in each evaluation sample, by reference to each potassium chloride aqueous solution adjusted to 0.1 wt % or 0.05 wt %.

Setting [4] is: addition concentration 10 ppb (1.25 weight ppm with respect to potassium chloride).
Setting [5] is: addition concentration 1 weight ppb (0.1 weight ppm with respect to amino acid).
Where [6] appears, read: addition concentration 10 weight ppb (1 weight ppm with respect to amino acid).
[7] abbreviates: addition concentration 50 weight ppb (5 weight ppm with respect to amino acid).
Where [8] appears, read: addition concentration 100 weight ppb (10 weight ppm with respect to amino acid).
[9] abbreviates: addition concentration 1000 weight ppb (1000 weight ppm with respect to potassium chloride).
The mark [10] stands for this setting: addition concentration 2000 weight ppb (2000 weight ppm with respect to potassium chloride).

SMILES strings stand for the structures.

As for `O=Cc1ccco1` [furfural, Furfural], the off-taste suppressing effect result was “++ (intensity of the same level as potassium chloride aqueous solution with potassium chloride concentration of not less than 0.7 wt % and less than 0.75 wt %)” in assay [1] (setting [4]); “−” in assay [2] (setting [5]); “−− (suppressed compared to negative control (same level of intensity as BCAA sweetness aqueous solution in which total concentration of leucine, isoleucine, and valine (weight ratio=2:1:1) exceeds 0.8 wt % and is not more than 0.9 wt %))” in assay [2] (setting [6]); “−− (suppressed compared to negative control (same level of intensity as BCAA sweetness aqueous solution in which total concentration of leucine, isoleucine, and valine (weight ratio=2:1:1) exceeds 0.8 wt % and is not more than 0.9 wt %))” in assay [2] (setting [7]); “−− (suppressed compared to negative control (same level of intensity as BCAA sweetness aqueous solution in which total concentration of leucine, isoleucine, and valine (weight ratio=2:1:1) exceeds 0.8 wt % and is not more than 0.9 wt %))” in assay [2] (setting [8]). Besides, the “intensity of off-tastes (bitter taste, metallic taste, harsh taste, astringent taste) derived from potassium chloride” value (from here on “intensity … from potassium chloride”) in assay [1] is recorded as “decreased”. For the same compound, the “intensity of off-tastes (bitter taste, harsh taste) derived from amino acid (branched chain amino acid)” value (from here on “intensity … (branched chain amino acid)”) in assay [2] is on record as “suppressed”.

Consider `CC1=C(O)C(=O)CC1` [cyclotene], for which the off-taste suppressing effect result in assay [1] (setting [4]) is “+++ (intensity of the same level as potassium chloride aqueous solution with potassium chloride concentration of not less than 0.65 wt % and less than 0.7 wt %)”; in assay [2] (setting [5]), “−− (suppressed compared to negative control (same level of intensity as BCAA sweetness aqueous solution in which total concentration of leucine, isoleucine, and valine (weight ratio=2:1:1) exceeds 0.8 wt % and is not more than 0.9 wt %))”; in assay [2] (setting [6]), “−− (suppressed compared to negative control (same level of intensity as BCAA sweetness aqueous solution in which total concentration of leucine, isoleucine, and valine (weight ratio=2:1:1) exceeds 0.8 wt % and is not more than 0.9 wt %))”; in assay [2] (setting [7]), “−− (suppressed compared to negative control (same level of intensity as BCAA sweetness aqueous solution in which total concentration of leucine, isoleucine, and valine (weight ratio=2:1:1) exceeds 0.8 wt % and is not more than 0.9 wt %))”; in assay [2] (setting [8]), “−− (suppressed compared to negative control (same level of intensity as BCAA sweetness aqueous solution in which total concentration of leucine, isoleucine, and valine (weight ratio=2:1:1) exceeds 0.8 wt % and is not more than 0.9 wt %))”. In addition, the “intensity … from potassium chloride” value in assay [1] was “decreased”. Further, in assay [2], the “intensity … (branched chain amino acid)” value was “suppressed”.

Regarding `CC(=O)c1ccco1` [2-acetylfuran], the off-taste suppressing effect entry is “+++ (intensity of the same level as potassium chloride aqueous solution with potassium chloride concentration of not less than 0.65 wt % and less than 0.7 wt %)” in assay [1] (addition concentration 100 ppb (12.5 weight ppm with respect to potassium chloride)); “−” in assay [2] (setting [6]); “−− (suppressed compared to negative control (same level of intensity as BCAA sweetness aqueous solution in which total concentration of leucine, isoleucine, and valine (weight ratio=2:1:1) exceeds 0.8 wt % and is not more than 0.9 wt %))” in assay [2] (setting [7]); “−− (suppressed compared to negative control (same level of intensity as BCAA sweetness aqueous solution in which total concentration of leucine, isoleucine, and valine (weight ratio=2:1:1) exceeds 0.8 wt % and is not more than 0.9 wt %))” in assay [2] (setting [8]); “−− (suppressed compared to negative control (same level of intensity as BCAA sweetness aqueous solution in which total concentration of leucine, isoleucine, and valine (weight ratio=2:1:1) exceeds 0.8 wt % and is not more than 0.9 wt %))” in assay [2] (addition concentration 200 weight ppb (20 weight ppm with respect to amino acid)). The “intensity … from potassium chloride” value in assay [1] was “decreased”. In assay [2], the “intensity … (branched chain amino acid)” value is recorded as “suppressed”.

For the compound `CC(=O)c1ccc(C)o1` [2-acetyl-5-methylfuran], the off-taste suppressing effect entry was “+ (intensity of the same level as potassium chloride aqueous solution with potassium chloride concentration of not less than 0.05 wt % and less than 0.1 wt %)” in assay [3] (setting [9]); “++ (intensity of the same level as potassium chloride aqueous solution with potassium chloride concentration of less than 0.05 wt %)” in assay [3] (setting [10]). Besides, the “intensity … from potassium chloride” value in assay [3] is given as “decreased”.

Consider `CCC(=O)O` [propionic acid], for which the off-taste suppressing effect entry in assay [3] (setting [9]) was “+ (intensity of the same level as potassium chloride aqueous solution with potassium chloride concentration of not less than 0.05 wt % and less than 0.1 wt %)”; in assay [3] (setting [10]) it was “++ (intensity of the same level as potassium chloride aqueous solution with potassium chloride concentration of less than 0.05 wt %)”; in assay [1] (addition concentration 1 ppm (125 weight ppm with respect to potassium chloride)), “++ (intensity of the same level as potassium chloride aqueous solution with potassium chloride concentration of not less than 0.7 wt % and less than 0.75 wt %)”; in assay [2] (setting [8]), “−”; in assay [2] (addition concentration 500 weight ppb (50 weight ppm with respect to amino acid)) it was “−− (suppressed compared to negative control (same level of intensity as BCAA sweetness aqueous solution in which total concentration of leucine, isoleucine, and valine (weight ratio=2:1:1) exceeds 0.8 wt % and is not more than 0.9 wt %))”; in assay [2] (addition concentration 1000 weight ppb (100 weight ppm with respect to amino acid)), “−− (suppressed compared to negative control (same level of intensity as BCAA sweetness aqueous solution in which total concentration of leucine, isoleucine, and valine (weight ratio=2:1:1) exceeds 0.8 wt % and is not more than 0.9 wt %))”. Further, the off-taste suppressing effect entry in assay [2] (addition concentration 2000 weight ppb (200 weight ppm with respect to amino acid)) is “−− (suppressed compared to negative control (same level of intensity as BCAA sweetness aqueous solution in which total concentration of leucine, isoleucine, and valine (weight ratio=2:1:1) exceeds 0.8 wt % and is not more than 0.9 wt %))”. For the same compound, the “intensity … from potassium chloride” value in assay [3] and in assay [1] was “decreased” throughout. Further, the “intensity … (branched chain amino acid)” value in assay [2] was “suppressed”.
